Source: paper PMC12268802, “The herbicidal natural product phosphonothrixin is an inhibitor of the riboflavin biosynthetic enzyme L‐3,4‐dihydroxy‐2‐butanone‐4‐phosphate synthase” (Pest Management Science, 2025)

Key:
[1] = test system: Abutilon theophrasti (ABUTH); experiment: Herbicidal greenhouse screening, post-emergence; type: in vivo; conditions: visual, 3 weeks after spraying
Method: (§1) Seeds of mono‐ and dicotyledonous weed plants were sown in plastic pots of 7 cm diameter filled with a clayey silt soil substrate. The plants were maintained for the preparatory phase of germination and initial growth in the greenhouse under optimum growth conditions. Phosphonothrixin (1) was prepared for application as an emulsion concentrate and diluted together with 0.2% agrotin (a polyfunctional non‐ionic additive) in water corresponding to a spray volume of approximately 600 L ha^−1. At a growth stage of 2 to 4 true leaves the test plants were sprayed and then placed in the greenhouse for 3 weeks under optimum growth conditions. Subsequently, the effect of phosphonothrixin (1) was assessed visually relative to the untreated controls resulting in herbicidal effects (%) ranging from 0% (no effect = untreated control) to 100% (complete control = died‐off ).

[2] = test system: Alopecurus myosuroides (ALOMY); experiment: Herbicidal greenhouse screening, post-emergence; type: in vivo; conditions: visual, 3 weeks after spraying
Method: as §1

[3] = test system: Amaranthus retroflexus (AMARE); experiment: Herbicidal greenhouse screening, post-emergence; type: in vivo; conditions: visual, 3 weeks after spraying
Method: as §1

Avena fatua (AVEFA) = experiment: Herbicidal greenhouse screening, post-emergence; type: in vivo; conditions: visual, 3 weeks after spraying
Method: as §1

[4] = test system: Brassica napus (winter rape, BRSNW); experiment: Herbicidal greenhouse screening, post-emergence; type: in vivo; conditions: visual, 3 weeks after spraying
Method: as §1

[5] = test system: Cyperus esculentus (CYPES); experiment: Herbicidal greenhouse screening, post-emergence; type: in vivo; conditions: visual, 3 weeks after spraying
Method: as §1

[6] = test system: Echinochloa crus‐galli (ECHCG); experiment: Herbicidal greenhouse screening, post-emergence; type: in vivo; conditions: visual, 3 weeks after spraying
Method: as §1

[7] = test system: Lolium multiflorum (LOLMU); experiment: Herbicidal greenhouse screening, post-emergence; type: in vivo; conditions: visual, 3 weeks after spraying
Method: as §1

[8] = test system: Matricaria inodora (MATIN); experiment: Herbicidal greenhouse screening, post-emergence; type: in vivo; conditions: visual, 3 weeks after spraying
Method: as §1

Oryza sativa (ORYSA) = experiment: Herbicidal greenhouse screening, post-emergence; type: in vivo; conditions: visual, 3 weeks after spraying
Method: as §1

[9] = test system: Pharbitis purpurea (PHBPU); experiment: Herbicidal greenhouse screening, post-emergence; type: in vivo; conditions: visual, 3 weeks after spraying
Method: as §1

[10] = test system: Polygonum convolvulus (POLCO); experiment: Herbicidal greenhouse screening, post-emergence; type: in vivo; conditions: visual, 3 weeks after spraying
Method: as §1

Setaria viridis (SETVI) = experiment: Herbicidal greenhouse screening, post-emergence; type: in vivo; conditions: visual, 3 weeks after spraying
Method: as §1

Stellaria media (STEME) = experiment: Herbicidal greenhouse screening, post-emergence; type: in vivo; conditions: visual, 3 weeks after spraying
Method: as §1

[11] = test system: Triticum aestivum (spring wheat, TRZAS); experiment: Herbicidal greenhouse screening, post-emergence; type: in vivo; conditions: visual, 3 weeks after spraying
Method: as §1

Veronica persica (VERPE) = experiment: Herbicidal greenhouse screening, post-emergence; type: in vivo; conditions: visual, 3 weeks after spraying
Method: as §1

Viola tricolor (VIOTR) = experiment: Herbicidal greenhouse screening, post-emergence; type: in vivo; conditions: visual, 3 weeks after spraying
Method: as §1

Zea mays (ZEAMX) = experiment: Herbicidal greenhouse screening, post-emergence; type: in vivo; conditions: visual, 3 weeks after spraying
Method: as §1

ZtDHBPS = ZtDHBPS (Zymoseptoria tritici, UniProt F9X7Z9); experiment: DHBPS activity assay; type: biochemical
Sequence of ZtDHBPS (F9X7Z9 1-226): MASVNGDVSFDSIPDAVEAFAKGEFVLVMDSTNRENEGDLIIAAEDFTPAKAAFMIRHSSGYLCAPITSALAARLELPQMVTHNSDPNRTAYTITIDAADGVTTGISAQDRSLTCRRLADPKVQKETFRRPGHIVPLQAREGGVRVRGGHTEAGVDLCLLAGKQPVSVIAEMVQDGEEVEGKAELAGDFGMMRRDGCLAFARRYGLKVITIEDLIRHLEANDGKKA
Method: DHBPS activity assays were out carried in 96‐well microtiter plates using a modification of the procedure previously described.[18] The reaction mixture contained 100 mM MES (2‐morpholinoethanesulfonic acid) buffer pH 6.5, 20 mM MgCl2, 20 mM D‐ribose‐5‐phosphate (Sigma‐Aldrich R7750), 0.02% Tween‐20, 0.2 mg BSA, 0.5 μg of spinach phosphoriboisomerase (Sigma‐Aldrich P9752) and DHBPS enzyme in a final volume of 110 μL. Assays were initiated by adding enzyme and terminated after 120 min incubation at rt by the addition of 90 μL of a solution of 3.5% α‐naphthol and 0.2% creatine in 2 N NaOH. After an additional 45 min incubation at rt the absorbance was determined at 540 nm. The pI50‐value for inhibition by phosphonothrixin (1) was determined with the XLFit Excel add‐in version 4.3.1 curve fitting program of ID Business Solutions Limited. […] Reaction velocities were fitted to the Michaelis–Menten equation with the XLFit curve fitting program.

[12] = test system: mono‐ and dicotyledonous weed plants; experiment: Greenhouse test, pre-emergence; type: in vivo; conditions: highest application rate tested; data not shown
[13] = test system: mono‐ and dicotyledonous weed plants; experiment: Greenhouse test, post-emergence, phenotype of affected plants; type: in vivo
Method: as §1

[14] = test system: gramineous and broadleaf weeds; design: method as in PMID 7490218, PMID 7490219; conditions: cited from earlier work

In the case of `CC(=O)C(O)(CO)CP(=O)(O)O` (centres unmarked) [phosphonothrixin], the “herbicidal effect rating, post-emergence” value ([1]; 80 g/ha) is reported as 2 (‘2’ = 40–59% inhibition), the “herbicidal effect rating, post-emergence” value ([1]; 320 g/ha) is reported as 3 (‘3’ = 60–79% inhibition) and the “herbicidal effect rating, post-emergence” value ([1]; 1280 g/ha) is reported as 4 (‘4’ = 80–90% inhibition). The “herbicidal effect rating, post-emergence” value ([1]; 5120 g/ha) was 4 (‘4’ = 80–90% inhibition), the “herbicidal effect rating, post-emergence” value ([2]; 320 g/ha) was 1 (‘1’ = 20–39% inhibition) and the “herbicidal effect rating, post-emergence” value ([2]; 1280 g/ha) was 3 (‘3’ = 60–79% inhibition). For the same compound, the “herbicidal effect rating, post-emergence” value ([2]; 5120 g/ha) was 4 (‘4’ = 80–90% inhibition), the “herbicidal effect rating, post-emergence” value ([3]; 80 g/ha) was 2 (‘2’ = 40–59% inhibition) and the “herbicidal effect rating, post-emergence” value ([3]; 320 g/ha) was 3 (‘3’ = 60–79% inhibition). For the same compound, the “herbicidal effect rating, post-emergence” value ([3]; 1280 g/ha) was 4 (‘4’ = 80–90% inhibition), the “herbicidal effect rating, post-emergence” value ([3]; 5120 g/ha) was 4 (‘4’ = 80–90% inhibition) and the “herbicidal effect rating, post-emergence” value (Avena fatua (AVEFA); 80 g/ha) was 2 (‘2’ = 40–59% inhibition). The “herbicidal effect rating, post-emergence” value (Avena fatua (AVEFA); 320 g/ha) was 3 (‘3’ = 60–79% inhibition), the “herbicidal effect rating, post-emergence” value (Avena fatua (AVEFA); 1280 g/ha) was 4 (‘4’ = 80–90% inhibition) and the “herbicidal effect rating, post-emergence” value (Avena fatua (AVEFA); 5120 g/ha) was 4 (‘4’ = 80–90% inhibition). The “herbicidal effect rating, post-emergence” value ([4]; 80 g/ha) was 2 (‘2’ = 40–59% inhibition), the “herbicidal effect rating, post-emergence” value ([4]; 320 g/ha) was 3 (‘3’ = 60–79% inhibition) and the “herbicidal effect rating, post-emergence” value ([4]; 1280 g/ha) was 4 (‘4’ = 80–90% inhibition). The “herbicidal effect rating, post-emergence” value ([4]; 5120 g/ha) was 4 (‘4’ = 80–90% inhibition), the “herbicidal effect rating, post-emergence” value ([5]; 320 g/ha) was 2 (‘2’ = 40–59% inhibition) and the “herbicidal effect rating, post-emergence” value ([5]; 1280 g/ha) was 3 (‘3’ = 60–79% inhibition). For the same compound, the “herbicidal effect rating, post-emergence” value ([5]; 5120 g/ha) was 4 (‘4’ = 80–90% inhibition), the “herbicidal effect rating, post-emergence” value ([6]; 80 g/ha) was 1 (‘1’ = 20–39% inhibition) and the “herbicidal effect rating, post-emergence” value ([6]; 320 g/ha) was 2 (‘2’ = 40–59% inhibition). For the same compound, the “herbicidal effect rating, post-emergence” value ([6]; 1280 g/ha) was 4 (‘4’ = 80–90% inhibition), the “herbicidal effect rating, post-emergence” value ([6]; 5120 g/ha) was 4 (‘4’ = 80–90% inhibition) and the “herbicidal effect rating, post-emergence” value ([7]; 80 g/ha) was 1 (‘1’ = 20–39% inhibition). The “herbicidal effect rating, post-emergence” value ([7]; 320 g/ha) was 3 (‘3’ = 60–79% inhibition), the “herbicidal effect rating, post-emergence” value ([7]; 1280 g/ha) was 4 (‘4’ = 80–90% inhibition) and the “herbicidal effect rating, post-emergence” value ([7]; 5120 g/ha) was 4 (‘4’ = 80–90% inhibition). For the same compound, the “herbicidal effect rating, post-emergence” value ([8]; 80 g/ha) was 2 (‘2’ = 40–59% inhibition), the “herbicidal effect rating, post-emergence” value ([8]; 320 g/ha) was 3 (‘3’ = 60–79% inhibition) and the “herbicidal effect rating, post-emergence” value ([8]; 1280 g/ha) was 4 (‘4’ = 80–90% inhibition). For the same compound, the “herbicidal effect rating, post-emergence” value ([8]; 5120 g/ha) was 4 (‘4’ = 80–90% inhibition), the “herbicidal effect rating, post-emergence” value (Oryza sativa (ORYSA); 1280 g/ha) was 1 (‘1’ = 20–39% inhibition) and the “herbicidal effect rating, post-emergence” value (Oryza sativa (ORYSA); 5120 g/ha) was 2 (‘2’ = 40–59% inhibition). For the same compound, the “herbicidal effect rating, post-emergence” value ([9]; 80 g/ha) was 4 (‘4’ = 80–90% inhibition), the “herbicidal effect rating, post-emergence” value ([9]; 320 g/ha) was 4 (‘4’ = 80–90% inhibition) and the “herbicidal effect rating, post-emergence” value ([9]; 1280 g/ha) was 4 (‘4’ = 80–90% inhibition). The “herbicidal effect rating, post-emergence” value ([9]; 5120 g/ha) was 4 (‘4’ = 80–90% inhibition), the “herbicidal effect rating, post-emergence” value ([10]; 80 g/ha) was 1 (‘1’ = 20–39% inhibition) and the “herbicidal effect rating, post-emergence” value ([10]; 320 g/ha) was 1 (‘1’ = 20–39% inhibition). The “herbicidal effect rating, post-emergence” value ([10]; 1280 g/ha) was 1 (‘1’ = 20–39% inhibition), the “herbicidal effect rating, post-emergence” value ([10]; 5120 g/ha) was 2 (‘2’ = 40–59% inhibition) and the “herbicidal effect rating, post-emergence” value (Setaria viridis (SETVI); 80 g/ha) was 4 (‘4’ = 80–90% inhibition). For the same compound, the “herbicidal effect rating, post-emergence” value (Setaria viridis (SETVI); 320 g/ha) was 4 (‘4’ = 80–90% inhibition), the “herbicidal effect rating, post-emergence” value (Setaria viridis (SETVI); 1280 g/ha) was 4 (‘4’ = 80–90% inhibition) and the “herbicidal effect rating, post-emergence” value (Setaria viridis (SETVI); 5120 g/ha) was 4 (‘4’ = 80–90% inhibition). For the same compound, the “herbicidal effect rating, post-emergence” value (Stellaria media (STEME); 80 g/ha) was 3 (‘3’ = 60–79% inhibition), the “herbicidal effect rating, post-emergence” value (Stellaria media (STEME); 320 g/ha) was 3 (‘3’ = 60–79% inhibition) and the “herbicidal effect rating, post-emergence” value (Stellaria media (STEME); 1280 g/ha) was 3 (‘3’ = 60–79% inhibition). The “herbicidal effect rating, post-emergence” value (Stellaria media (STEME); 5120 g/ha) was 4 (‘4’ = 80–90% inhibition), the “herbicidal effect rating, post-emergence” value ([11]; 320 g/ha) was 1 (‘1’ = 20–39% inhibition) and the “herbicidal effect rating, post-emergence” value ([11]; 1280 g/ha) was 4 (‘4’ = 80–90% inhibition). For the same compound, the “herbicidal effect rating, post-emergence” value ([11]; 5120 g/ha) was 4 (‘4’ = 80–90% inhibition), the “herbicidal effect rating, post-emergence” value (Veronica persica (VERPE); 80 g/ha) was 3 (‘3’ = 60–79% inhibition) and the “herbicidal effect rating, post-emergence” value (Veronica persica (VERPE); 320 g/ha) was 3 (‘3’ = 60–79% inhibition). The “herbicidal effect rating, post-emergence” value (Veronica persica (VERPE); 1280 g/ha) was 4 (‘4’ = 80–90% inhibition), the “herbicidal effect rating, post-emergence” value (Veronica persica (VERPE); 5120 g/ha) was 4 (‘4’ = 80–90% inhibition) and the “herbicidal effect rating, post-emergence” value (Viola tricolor (VIOTR); 80 g/ha) was 1 (‘1’ = 20–39% inhibition). The “herbicidal effect rating, post-emergence” value (Viola tricolor (VIOTR); 320 g/ha) was 3 (‘3’ = 60–79% inhibition), the “herbicidal effect rating, post-emergence” value (Viola tricolor (VIOTR); 1280 g/ha) was 4 (‘4’ = 80–90% inhibition) and the “herbicidal effect rating, post-emergence” value (Viola tricolor (VIOTR); 5120 g/ha) was 4 (‘4’ = 80–90% inhibition). The “herbicidal effect rating, post-emergence” value (Zea mays (ZEAMX); 320 g/ha) was 2 (‘2’ = 40–59% inhibition), the “herbicidal effect rating, post-emergence” value (Zea mays (ZEAMX); 1280 g/ha) was 3 (‘3’ = 60–79% inhibition) and the “herbicidal effect rating, post-emergence” value (Zea mays (ZEAMX); 5120 g/ha) was 4 (‘4’ = 80–90% inhibition). For the same compound, the IC50 (ZtDHBPS) was 19 µM, the pre-emergence herbicidal activity [12] was “failed to show any pre‐emergence activity” and the “phenotype of affected plants” value [13] was “bleaching phenotype”. For the same compound, the “effect after foliar application” value [14] was “chlorosis” and the effect on germination ([14]; gramineous and broadleaf weeds) was “significantly inhibited germination”.
